In article PMC11089505, “Structural Elucidation and Antiviral Activity of Covalent Cathepsin L Inhibitors” (Journal of Medicinal Chemistry, 2024):
Values joined by “and” are separate entries in the source; they are usually repeats but may differ in a detail not shown here. Identical values can stand only once. Like-named read-outs stand apart in the source and are kept apart here. Peptide text beside a SMILES is read from it.

Key:
CatL [1] = conditions: cited from earlier work; for IC50: Table S1, SI reference list
[2] = test system: SARS-CoV-2-GFP in Vero E6 cells; assay: microbe, parasite or virus in culture; format: cell-based
CatL [3] = target: T1, CatL (Homo sapiens, UniProt P07711, T223A); assay: NanoDSF, thermal stability of CatL; format: binding; conditions: for 2:1, Tm average (CatL): 2:1 compound to protein; for 20:1, Tm average (CatL): 20:1 compound to protein
T1 construct: made in house; host or cells: Komagataella pastoris strain GS115

SARS-CoV-2 Mpro = SARS-CoV-2 Mpro (Severe acute respiratory syndrome coronavirus 2, UniProt P0DTD1); format: binding; conditions: 2:1 compound to protein
CatL [4] = target: T1, CatL; assay: CatL inhibition assay (Ki), substrate Z-RR-AMC; format: biochemical; conditions: read-out: Residual activity (Vi/V0)
Procedure: (§1) Experiments were performed in a solution of 50 mM sodium acetate, pH 4.0, 50 mM NaCl, 0.1% PEG 6000, and 5 mM DTT. Distinct assays with epoxide inhibitors at pH 6.0 were performed in 50 mM sodium phosphate buffer, 50 mM NaCl, 5 mM DTT, 0.1% PEG 6000, adjusted to pH 6.0.
(§2) M1000 pro plate reader (Tecan), the fluorescent peptide substrate Z-RR-AMC, and excitation and emission wavelengths of 370 and 460 nm, respectively.
(§3) At first, the inhibitor concentration span was optimized for each inhibitor and the assay buffer. For this initial screening, CatL (5 nM) was mixed with different concentrations of inhibitors (1 nM–50 μM) to determine the range of their inhibition. […] Reaction data were fitted to the […] in GraphPad Prism 9 software: Y = bottom + (top – bottom)/(1 + 10^∧((log IC50 – X) × HillSlope)); X is the log of dose or concentration, Y is the response (fluorescence signal), decreasing as X increases, top and bottom are the plateaus in the same units as Y, log IC50 same log units as X, HillSlope is the slope factor or called the Hill slope.

CatL [5] = target: T1, CatL; assay: CatL inactivation assay comparing epoxides at pH 6 and pH 4; format: biochemical
Procedure: as §1, §2, §3
Figure S7. Inactivation of CatL.
(1 picture or pasted object on this page, not shown here)

[6] = Cell viability assay (CellTiter-Blue); conditions: African green monkey
[7] = Severe acute respiratory syndrome coronavirus 2, Vero C1008, 24 h, read-out: EC50 (24 h)
[8] = Severe acute respiratory syndrome coronavirus 2, Vero C1008, 24 h, read-out: EC50 (after 24 h)
[9] = Severe acute respiratory syndrome coronavirus 2, Vero C1008, 48 h, read-out: EC50 (after 48 h)

T1 sequence (P07711 114-333 T223A): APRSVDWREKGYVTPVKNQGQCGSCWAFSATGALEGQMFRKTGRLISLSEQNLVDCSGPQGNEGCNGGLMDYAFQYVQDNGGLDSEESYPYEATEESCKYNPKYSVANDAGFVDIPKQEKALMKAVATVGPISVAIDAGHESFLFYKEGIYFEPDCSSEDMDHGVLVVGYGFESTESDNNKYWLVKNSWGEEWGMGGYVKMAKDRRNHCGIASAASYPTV

Q: Which Ki (CatL [1]; Sasaki et al., read-out: Ki) does the source give for CSCCC(C=O)NC(=O)C(CC(C)C)NC(=O)C(CC(C)C)NC(C)=O (stereo not drawn) [CI-II] (Ac-Leu-Leu-Met-aldehyde; configuration not given here) here?
A: 0.6 nM

Q: What does the source list for CC(C)C[C@@H](C=O)NC(=O)[C@@H](NS(=O)(=O)c1ccc(F)cc1)C(C)C [CI-VI, 2-[(4-Fluorophenyl)sulfonylamino]-3-methyl-N-(4-methyl-1-oxopentan-2-yl)butanamide]?
A: EC50 [2, 7]: 37.7 nM; EC50 [2, 8]: 37.7 nM; EC50 [2, 9]: 1330 nM; ΔTm [K] for CatL, 2:1 ratio (CatL [3]): 15.2 ± 0.4 K; 2:1, Tm average (CatL) (CatL [3]): 78.3 °C; 20:1, Tm average (CatL) (CatL [3]): 81.4 °C; ΔTm (for CatL), 2:1 compound to protein mixing ratio (CatL [3]; pH 5): 15,2 ± 0,4 °C and 15.2 °C; ΔTm (for CatL), 20:1 compound to protein mixing ratio (CatL [3]; pH 5): 18,3 ± 0,1 °C and 18.3 °C; 2:1, Tm average (Mpro) (SARS-CoV-2 Mpro): 54.5 °C; IC50 (CatL [1]): 1.6 nM

Q: Which EC50 [2, 7] does the source give for CC[C@H](C)[C@H](NS(=O)(=O)c1cccc2ccccc12)C(=O)N[C@H](C=O)Cc1c[nH]c2ccccc12 [CLI-IV, 1-Naphthalenesulfonyl-Ile-Trp-aldehyde] here?
A: 7.3 nM

Q: And the EC50 [2, 8]?
A: 7.26 nM

Q: And the EC50 ([2]; Severe acute respiratory syndrome coronavirus 2, Vero C1008, 48 h, read-out: EC50 (48 h))?
A: < 500 nM

Q: What about the EC50 [2, 9] of the same molecule?
A: 411 nM

Q: What about the EC50 ([2]; read-out: EC50 (24 h)) of the same molecule?
A: < 10 nM

Q: And the “2:1, Tm average (Mpro)” value (SARS-CoV-2 Mpro)?
A: 54.6 °C

Q: And the remaining activity at 0.00028 µM (CatL [4]; CLI-IV 0.280 nM)?
A: 92.4%

Q: And the remaining activity at 0.0004 µM (CatL [4]; CLI-IV 0.400 nM)?
A: 94.2%

Q: And the remaining activity at 0.00058 µM (CatL [4]; CLI-IV 0.580 nM)?
A: 89.3%

Q: What about the remaining activity at 0.00082 µM (CatL [4]; CLI-IV 0.820 nM) of the same molecule?
A: 92.1%

Q: What about the remaining activity at 0.00168 µM (CatL [4]; CLI-IV 1.680 nM) of the same molecule?
A: 78.4%

Q: And the remaining activity at 0.0024 µM (CatL [4]; CLI-IV 2.400 nM)?
A: 60.1%

Q: What about the remaining activity at 0.00343 µM (CatL [4]; CLI-IV 3.430 nM) of the same molecule?
A: 40.4%

Q: And the remaining activity at 0.007 µM (CatL [4]; CLI-IV 7.000 nM)?
A: 11%

Q: What about the remaining activity at 0.01 µM (CatL [4]; CLI-IV 10.000 nM) of the same molecule?
A: 5.5%

Q: And the IC50 (CatL [1])?
A: 1.9 nM

Q: Which EC50 [2, 8] does the source give for CN(C)C(=O)C(Cc1ccccc1)NC(=O)[C@H]1O[C@@H]1C(=O)NCCc1ccccn1 (stereo partly drawn) [CLIK148, N-(L-3-trans-(2-pyridin-2-yl-ethylcarbamoyl)-oxirane-2-carbonyl)-L-Phe-dimethylamide] here?
A: 282 nM

Q: And the EC50 [2, 9]?
A: 2780 nM

Q: And the “ΔTm (for CatL), 2:1 compound to protein mixing ratio” value (CatL [3]; 5 µM CatL, pH 5.0, 2% DMSO, 2:1)?
A: 13,8 ± 0,1 °C and 13.8 °C

Q: What about the “ΔTm (for CatL), 20:1 compound to protein mixing ratio” value (CatL [3]; 5 µM CatL, pH 5.0, 2% DMSO, 20:1) of the same molecule?
A: 13,9 ± 0,2 °C and 13.9 °C

Q: And the “2:1, Tm average (CatL)” value (CatL [3])?
A: 76.9 °C

Q: And the “20:1, Tm average (CatL)” value (CatL [3])?
A: 77 °C

Q: What about the “ΔTm [K] for CatL, 2:1 ratio” value (CatL [3]; Table S1, 2:1 ratio) of the same molecule?
A: 13.8 ± 0.1 K

Q: And the “2:1, Tm average (Mpro)” value (SARS-CoV-2 Mpro)?
A: 54.8 °C

Q: What about the “Inactivation Rate” value (CatL [5]; CLIK148, pH 4, 0.44 µM (440 nM)) of the same molecule?
A: 0.0004006 per second and 0.0003231 per second and 0.0004659 per second

Q: And the “Inactivation Rate” value (CatL [5]; CLIK148, pH 4, 0.99 µM (990 nM))?
A: 0.0009097 per second and 0.0007894 per second and 0.0009283 per second

Q: What about the “Inactivation Rate” value (CatL [5]; CLIK148, pH 4, 1.48 µM (1480 nM)) of the same molecule?
A: 0.00137 per second and 0.001226 per second and 0.001313 per second

Q: What about the “Inactivation Rate” value (CatL [5]; CLIK148, pH 4, 2.22 µM (2220 nM)) of the same molecule?
A: 0.001929 per second and 0.00189 per second and 0.001923 per second

Q: And the “Inactivation Rate” value (CatL [5]; CLIK148, pH 4, 3.33 µM (3330 nM))?
A: 0.00288 per second and 0.002823 per second and 0.002796 per second

Q: And the “Inactivation Rate” value (CatL [5]; CLIK148, pH 4, 5.00 µM (5000 nM))?
A: 0.004395 per second and 0.004358 per second and 0.004463 per second

Q: And the “Inactivation Rate” value (CatL [5]; CLIK148, pH 6, 0.44 µM (440 nM))?
A: 0.000984 per second and 0.001005 per second and 0.00104 per second

Q: And the “Inactivation Rate” value (CatL [5]; CLIK148, pH 6, 0.66 µM (660 nM))?
A: 0.001629 per second and 0.001484 per second and 0.001519 per second

Q: And the “Inactivation Rate” value (CatL [5]; CLIK148, pH 6, 0.99 µM (990 nM))?
A: 0.002031 per second and 0.002049 per second and 0.002115 per second

Q: And the “Inactivation Rate” value (CatL [5]; CLIK148, pH 6, 1.48 µM (1480 nM))?
A: 0.002988 per second and 0.003179 per second and 0.003258 per second

Q: And the “Inactivation Rate” value (CatL [5]; CLIK148, pH 6, 2.22 µM (2220 nM))?
A: 0.004844 per second and 0.004638 per second and 0.004732 per second

Q: And the “Inactivation Rate” value (CatL [5]; CLIK148, pH 6, 3.33 µM (3330 nM))?
A: 0.00752 per second and 0.006254 per second and 0.007241 per second

Q: And the “Inactivation Rate” value (CatL [5]; CLIK148, pH 6, 5.00 µM (5000 nM))?
A: 0.01516 per second and 0.01256 per second and 0.01191 per second

Q: What about the viability at 48 h, 1e-05 µM [6] of the same molecule?
A: 99.3%

Q: And the viability at 48 h, 0.0001 µM [6]?
A: 100%

Q: What about the viability at 48 h, 0.001 µM [6] of the same molecule?
A: 98%

Q: What about the viability at 48 h, 0.01 µM [6] of the same molecule?
A: 101%

Q: And the viability at 48 h, 0.1 µM [6]?
A: 98.3%

Q: What about the viability at 48 h, 1 µM [6] of the same molecule?
A: 104%

Q: What about the viability at 48 h, 10 µM [6] of the same molecule?
A: 110%
